Reference: ChEMBL document CHEMBL3769353, “Novel indole-based melatonin analogues: Evaluation of antioxidant activity and protective effect against amyloid β-induced damage” (Bioorg Med Chem, 2016)
The source made the active and inactive calls. The calls are words filed in the database; no cut-off is given here.

How the values were obtained:
Erythrocyte [1] = test: Antioxidant activity in human erythrocytes assessed as ROS induced DCFH-DA oxidation at 10 uM by fluorescence analysis in presence of 10 uM of H2O2; format: functional, cell-based
Erythrocyte [2] = test: Antioxidant activity in human erythrocytes assessed as ROS induced DCFH-DA oxidation at 100 uM by fluorescence analysis in presence of 10 uM of H2O2; format: functional, cell-based
[3] = Cytotoxicity against CHOK1 cells assessed as LDH leakage at 10 uM by spectrophotometric analysis; format: cell-based, Cricetulus griseus; settings: chinese hamster, cho-k1, 10 µM
PC-12 = test: Neuroprotective activity against amyloid beta (25 to 35 amino acid residues) induced damage in rat PC12 cells assessed as cell viability preincubated for 3 hrs followed by addition of amyloid beta (25 to 35 amino acid residues) for 24 hrs by MTT assay; format: functional, cell-based
[4] = Cytotoxicity against rat PC12 cells at 100 uM; format: cell-based; settings: pc-12, 100 µM
[5] = Antioxidant activity in rat PC12 cells assessed as inhibition of amyloid beta (25 to 35 amino acid residues) induced ROS generation at 50 uM preincubated overnight followed by addition of amyloid beta (25 to 35 amino acid residues) measured after 120 mins by DCFH-DA-based fluorescence assay; format: functional; settings: PC-12

Compound | Activity (Erythrocyte [1]) | Activity (Erythrocyte [2]) | Activity [3] | IC50 (PC-12) [µM] | Activity [4] | inhibition at 50 µM [5] [%]
Fc1ccc(-c2[nH]c3ccccc3c2/C=N/Nc2cccc(F)c2)cc1 | Active | Active | Non-toxic | 54.4 | Non-toxic | 77.8
Fc1ccc(-c2[nH]c3ccccc3c2/C=N/Nc2ccccc2Cl)cc1 | Active | Active | Non-toxic | 38.3 | Non-toxic | 44.1
COc1ccc(C(=O)N/N=C/c2c(-c3ccc(F)cc3)[nH]c3ccccc23)cc1 | inactive | – | Non-toxic | > 100 | Non-toxic | 19.2
Fc1ccc(-c2[nH]c3ccccc3c2/C=N/Nc2ccccc2F)cc1 | Active | Active | Non-toxic | 64.1 | Non-toxic | 88.1
Fc1ccc(-c2[nH]c3ccccc3c2/C=N/Nc2ccc(Cl)c(Cl)c2)cc1 | Active | Active | Non-toxic | 65.7 | Non-toxic | 71.2
Fc1ccc(-c2[nH]c3ccccc3c2/C=N/Nc2cccc(Cl)c2)cc1 | Active | Active | Non-toxic | 44 | Non-toxic | 54.6
Fc1ccc(-c2[nH]c3ccccc3c2/C=N/Nc2cc(Cl)ccc2Cl)cc1 | Active | Active | Non-toxic | 39 | Non-toxic | 59.2
Fc1ccc(-c2[nH]c3ccccc3c2/C=N/Nc2cc(F)cc(F)c2)cc1 | Active | Active | Non-toxic | 34.3 | Non-toxic | 86.4
Fc1ccc(N/N=C/c2c(-c3ccc(F)cc3)[nH]c3ccccc23)cc1 | inactive | – | Non-toxic | > 100 | Non-toxic | 74
Fc1ccc(-c2[nH]c3ccccc3c2/C=N/Nc2ccccc2Br)cc1 | Active | Active | Non-toxic | 37 | Non-toxic | 95.5
Fc1ccc(-c2[nH]c3ccccc3c2/C=N/Nc2cccc(Br)c2)cc1 | Active | Active | Non-toxic | – | Non-toxic | –
Fc1ccc(-c2[nH]c3ccccc3c2/C=N/Nc2ccc(Cl)cc2Cl)cc1 | Active | Active | Non-toxic | 51.5 | Non-toxic | 83.8
Fc1ccc(-c2[nH]c3ccccc3c2/C=N/Nc2ccc(F)cc2F)cc1 | Active | Active | Non-toxic | 50.4 | Non-toxic | 74.9
Fc1ccc(-c2[nH]c3ccccc3c2/C=N/Nc2ccc(Cl)cc2)cc1 | Active | Active | Non-toxic | 73.9 | Non-toxic | 49.7
COc1ccc2[nH]cc(CCNC(C)=O)c2c1 [MELATONIN] | – | – | – | > 100 | Non-toxic | 49.9
